Results: US20180193361A1, “GUT ANTI-INFLAMMATORY AGENTS FOR REGULATION OF HIGH BLOOD GLUCOSE LEVELS” (UNIVERSITY HEALTH NETWORK, priority 2015, published 2018)

Columns and labels:
[1] = system: oral tolerance to OVA antigen; assay: Oral tolerance studies (OVA); type: in vivo, mice; details: HFD 5-ASA vs HFD
Procedure: We administered oral ovalbumin (OVA) in the form of drinking water (1 mg/mL) for 7 days to NCD-, HFD- or HFD 5-ASA-fed mice to induce oral tolerance. Average consumption was similar across different groups, at 5 mL per day. Following oral tolerance induction, we immunized animals with or without oral tolerance induction subcutaneously with OVA/CFA (50 μg per side) on both sides of the chest. Axillary draining lymph nodes and VAT were collected 7 days following immunization and subjected to immunological analysis, including OVA323-339/I-A^b tetramer staining and OVA-induced cytokine production and proliferation in vitro. Briefly, we processed axillary lymph nodes into single-cell suspension through a 70 μm filter and cultured the cells (5×10^5/well) in 96-well U-bottom plate with indicated concentrations of OVA (Sigma). We collected culture supernatants at 48 h for determination of IL-2 and IFNγ via ELISA (Biolegend). To measure OVA-specific antibody responses, we performed ELISA by plating diluted serum samples (1:200-1:4000) onto OVA-coated ELISA plates (10 μg/mL), followed by biotinylated anti-mouse isotype-specific secondary antibodies (1:5000 dilution) (Southern Biotech) and HRP-conjugated streptavidin (Biolegend). To measure-OVA-specific Tregs, we stained VAT immune cells with a 1:200 dilution of PE-conjugated OVA323-339/I-A^b or control hCLIP/I-A^b tetramers (NIH Tetramer Core Facility) in FBS-supplemented RPM-I for 4 hours at 37° C., followed by antibody staining for other surface antigens and Foxp3.

PPARγ = molecular target: T1, PPARγ (Mus musculus, UniProt P37238); assay: PPARγ activity assay in small bowel T cell nuclear extracts; type: in vivo; details: purified small bowel T cells, mice fed HFD 5-ASA vs control HFD
T1 construct: from tissue; host or cells: purified small bowel T cells of HFD or HFD 5-ASA-fed mice (nuclear extracts)
Description: We measured PPARγ functional activity in T cell nuclear extracts using a PPARγ transcription factor binding assay following vendor's instructions (ThermoScientific and Cayman Chemical Company). This ELISA-based assay is precoated with dsDNA containing the peroxisome proliferator response element (PPRE). PPARγ in the isolated nuclear extracts bind to PPRE. As per vendor's recommendations, this assay is specific to PPARγ and not to other PPARs (i.e., α or δ).

Beta7null mice = assay: Metabolic studies, Beta7null mice on HFD 5-ASA; type: in vivo; details: HFD vs HFD 5-ASA, 12 weeks
Procedure: Mice. Mice were fed either NCD (15 kcal % fat) or HFD (Research Diets, 60 kcal % fat, irradiated) starting at 6 weeks of age. All studies were performed under the approval of Animal User Protocols by the Animal Care Committee at the University Health Network. Mice were maintained in a pathogen-free, temperature-controlled environment on a 12-hour light and dark cycle. All mice used in comparative studies were male, age-matched, and litter mates where possible.
We measured body weights, GTTs, ITTs, serum insulin, and fat cell diameter as previously described (Winer et al., 2009a). All GTTs were performed with a 1.5 g/kg glucose i.p. injection unless indicated otherwise.

gut epithelial barrier = details: models of IBD (Di Paolo et al., 1996; Liu et al., 2009); cited from earlier work
[2] = system: VAT T cells and M1 macrophages; assay: Flow cytometry of VAT immune cells, HFD or HFD 5-ASA; type: in vivo, mice; details: HFD vs HFD 5-ASA 1500 mg/kg/day, 16 weeks
Procedure: We isolated VAT-associated immune cells as previously described (Winer et al., 2009a).
We stained single cell suspensions for 30 min on ice with commercial antibodies. Flow cytometry antibodies including CD45.2 (104), CD3 (145-2C11), CD4 (GK1.5), CD8 (53-6.7), CD25 (PC61), γδTcR (GL3), Foxp3 (150D), IL-17 (TC11-18H10.1), IFNγ XMG1.2), α4β7 (DATK32), CCR9 (CW-1.2), CD11b (M1/70), F4/80 (BM8), CD11c (N418), CD206 (C068C2), Gr-1 (RB6-8C5), IL-7Rα (A7R34), B220 (RA3-6B2), Thy1.2 (30-H12), NKp46 (29A1.4), and Sca-1 (D7) were purchased from Biolegend. Intracellular staining was performed using a Foxp3 staining buffer kit (eBioscience). We acquired data on a Fortessa flow cytometer (BD Biosciences) and analyzed it with FlowJo software (Tree Star). We gated ILCs as described (Kirchberger et al., 2013).

NCD-fed C57BL/6 mice = assay: Metabolic studies, NCD or NCD 5-ASA; type: in vivo; details: NCD vs NCD 5-ASA 1500 mg/kg/day, 12 weeks
Procedure: Mice. Mice were fed either NCD (15 kcal % fat) or HFD (Research Diets, 60 kcal % fat, irradiated) starting at 6 weeks of age. […] Mice were maintained in a pathogen-free, temperature-controlled environment on a 12-hour light and dark cycle. All mice used in comparative studies were male, age-matched, and litter mates where possible. […] We measured body weights, GTTs, ITTs, serum insulin, and fat cell diameter as previously described (Winer et al., 2009a). All GTTs were performed with a 1.5 g/kg glucose i.p. injection unless indicated otherwise.

[3] = system: small bowel dendritic cells; assay: DC-T cell co-culture, 5-ASA pre-treated small bowel dendritic cells with OT-II T cells; type: cell-based, mice; details: DCs pre-treated with 0.1 or 1.0 mM 5-ASA 24 hours, OVA323-339 peptide, 48 hours
Procedure: To measure the effect of IFNγ on tight-junction gene expression, we treated MODE-K cells with recombinant mouse IFNγ (Biolegend). We purified bulk dendritic cells and T cells from murine small bowels and spleens using a negative selection DC or T cell isolation kit (Stem Cell Technologies). We plated T cells at 5×10^5 cells/well with plate-bound anti-CD3/CD28 (1 μg/ml, Biolegend). […] We collected supernatants for cytokine measurements after 72 hour incubation. […] After 24 hours, we washed the cells with PBS and co-cultured them (1×10^4 cells/well) with OVA323-339 peptide and OT-II splenic or small bowel T cells (5×10^4 cells/well) for 48 hours. Supernatants were collected at 48 hours for cytokine measurement.

endotoxin, anti-LPS IgG = assay: Endotoxin and anti-LPS IgG measurements; type: in vivo, mice; details: HFD vs HFD 5-ASA, 14 weeks
Description: We measured endotoxin levels in the serum and adipose tissue using Pyrogene Recombinant C endotoxin detection fluorescence kit (Lonza Inc.). We measured mouse serum anti-LPS IgG antibody levels with a commercially available kit (Chrondrex Inc.).

T1 sequence (P37238 whole entry): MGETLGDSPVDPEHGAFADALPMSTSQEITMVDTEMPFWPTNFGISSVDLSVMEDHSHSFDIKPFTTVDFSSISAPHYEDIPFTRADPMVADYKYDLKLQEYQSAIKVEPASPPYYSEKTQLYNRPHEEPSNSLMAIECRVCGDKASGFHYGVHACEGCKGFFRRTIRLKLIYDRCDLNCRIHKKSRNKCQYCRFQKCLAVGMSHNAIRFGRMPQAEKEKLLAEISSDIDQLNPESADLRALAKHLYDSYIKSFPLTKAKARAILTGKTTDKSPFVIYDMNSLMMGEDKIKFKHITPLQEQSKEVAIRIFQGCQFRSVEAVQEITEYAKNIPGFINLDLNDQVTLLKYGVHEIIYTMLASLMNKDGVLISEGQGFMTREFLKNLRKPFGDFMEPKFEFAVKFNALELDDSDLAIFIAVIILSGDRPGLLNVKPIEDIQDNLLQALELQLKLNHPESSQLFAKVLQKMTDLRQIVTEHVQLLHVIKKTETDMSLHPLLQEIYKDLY

Nc1ccc(O)c(C(=O)O)c1 [5-ASA, 5-aminosalicylic acid]
OVA-specific IgA ([1]; oral OVA then OVA-CFA immunization): nearly threefold increase
antigen-specific Tregs to OVA in VAT ([1]; OVA/I-Ab tetramers): nearly fourfold increase
OVA-specific T cell-derived IFNγ ([1]; draining lymph nodes): reduction
OVA-specific T cell-derived IL-2 ([1]; draining lymph nodes): reduction
PPARγ functional activity (PPARγ): increased
IR (Beta7null mice): no major effects
glucose tolerance (Beta7null mice): no major effects
intactness of the gut epithelial barrier (gut epithelial barrier): beneficial effects
Tregs in VAT [2]: increasing
percentages of IFNγ-secreting CD8+ T cells in VAT [2]: reducing
percentages of M1 inflammatory macrophages in VAT [2]: reducing
percentages of Th1 cells in VAT [2]: reducing
IR (NCD-fed C57BL/6 mice): little or no difference
body weight (NCD-fed C57BL/6 mice): little or no difference
fasting glucose (NCD-fed C57BL/6 mice): little or no difference
glucose tolerance (NCD-fed C57BL/6 mice): little or no difference
IFNγ levels from OT-II CD4+ T cells [3]: reduced
IgG responses to LPS (serum anti-LPS IgG) (endotoxin, anti-LPS IgG): markedly diminished
VAT endotoxin levels (endotoxin, anti-LPS IgG): trended lower
serum endotoxin (endotoxin, anti-LPS IgG): reduced
